Assay results taken from patent publication US20210071180A1, “MICRORNA 584-5P COMPOSITIONS AND METHODS FOR TREATING CANCER” (BOARD OF REGENTS, THE UNIVERSY OF TEXAS SYSTEM, priority 2018, published 2021).

System: HDAC1
Assay: qPCR and Western blot of HDAC1 in MB cells
Assay type: cell-based
Conditions: transcript and protein levels, all cell lines tested

miR-584-5p: microRNA mimic; nucleotide sequence UUAUGGUUUGCCUGGGACUGAG (SEQ ID NO: 1); purchased from Thermofisher (chemistry not given here)
expression of HDAC1: significantly reduced expression
